According to US20260183274A1, “PDK1 REGULATORY COMPOUND AND COMPOSITION CONTAINING THE SAME” (PROVIBIO CO., LTD., priority 2024, published 2026):

What was measured:
Assay type in all cases: cell-based
[1] = test system: T cells isolated from mouse spleens; test: T cell proliferation inhibition (CFSE flow cytometry, anti-CD3/anti-CD28 stimulation); details: mouse spleen T cells, 3 days; for inhibition at 0.01 µM / inhibition at 0.1 µM / inhibition at 1 µM / inhibition at 10 µM / inhibition at 30 µM / inhibition at 50 µM: Mus musculus, T-cell, 72 h, read-out: Proliferation inhibition rate (%)
In short: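 Splenic T cells from 7-week-old C57BL/6 mice were MACS-isolated, CFSE-labelled, seeded at 2×10^5 cells/well and activated with anti-CD3/anti-CD28 (0.5 μg/mL each). Compound at 10 nM–50 μM (six levels, triplicate) was present for 3 days at 37 °C before flow cytometric readout of proliferation inhibition rate.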

[2] = test system: Human B Lymphocyte cell line, SU-DHL-8; test: Relative cell viability CCK-8, SU-DHL-8; details: 48 hours, untreated (DMSO) = 100%; for viability at 1 µM / viability at 10 µM / viability at 30 µM / viability at 50 µM: Homo sapiens, SU-DHL-8, 48 h; for viability at 1 µM: read-out: Relative cell viability (%), SU-DHL-8, 1 μM; for viability at 10 µM: read-out: Relative cell viability (%), SU-DHL-8, 10 μM; for viability at 30 µM: read-out: Relative cell viability (%), SU-DHL-8, 30 μM; for viability at 50 µM: read-out: Relative cell viability (%), SU-DHL-8, 50 μM
In short: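 Cells grown in RPMI-1640 with 10% FBS, treated with compound at several concentrations, then given CCK-8 for 4 h at 37° C. Viability expressed as percent of DMSO-treated cells.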

[3] = test system: Human Head and Neck cancer, Fadu; test: Relative cell viability CCK-8, Fadu; details: Fadu cells, relative to untreated cells
Method: Human-derived head and neck cancer cell line Fadu and osteosarcoma cell line Saos-2 were cultured in MEM medium containing 10% FBS, 100 U/mL penicillin, and 100 μg/mL streptomycin.
Following stabilization, the cells were harvested using Trypsin-EDTA treatment, centrifuged at 1,200 rpm for 3 minutes, the supernatant was removed, and the cells were resuspended in the same medium. They were then seeded into a 96-well plate (Costar 96-well cell culture plate, Corning) at 100 μL per well, and the conditions were adjusted as indicated in Table 5.
The cells were cultured in a 5% CO2 incubator at 37° C. for 24 hours, and after stabilization of the cells, each plate was washed with 200 μL of PBS per well and treated with 50 μL of culture medium per well.
After that, 10 μL of CCK-8 was added to each well, and the plate was incubated again at 37° C. in a 5% CO2 incubator for 2 hours.
In other words, when the survival rate of untreated cells (DMSO) is set at 100%, the relative cell survival rate in each group treated with the drug at different concentrations is indicated.

Compound | Proliferation inhibition rate (%) ([1]; compound 10 nM) | Proliferation inhibition rate (%) ([1]; compound 100 nM) | Proliferation inhibition rate (%) ([1]; compound 1 μM) | Proliferation inhibition rate (%) ([1]; compound 10 μM) | Proliferation inhibition rate (%) ([1]; compound 30 μM) | Proliferation inhibition rate (%) ([1]; compound 50 μM) | Relative cell viability (%), SU-DHL-8 ([2]; 1 μM) | Relative cell viability (%), SU-DHL-8 ([2]; 10 μM) | Relative cell viability (%), SU-DHL-8 ([2]; 30 μM) | Relative cell viability (%), SU-DHL-8 ([2]; 50 μM) | inhibition at 0.01 µM ([1]; compound 10 nM) | inhibition at 0.1 µM ([1]; compound 100 nM) | inhibition at 1 µM ([1]; compound 1 μM) | inhibition at 10 µM ([1]; compound 10 μM) | inhibition at 30 µM ([1]; compound 30 μM) | inhibition at 50 µM ([1]; compound 50 μM) | viability at 1 µM [2] | viability at 10 µM [2] | viability at 30 µM [2] | viability at 50 µM [2] | also measured
Nc1ncccc1C(=O)NCCCCCCCCCCCCN1CCN(CCO)CC1 [Compound 54, 2-Amino-N-(12-(4-(2-hydroxyethyl)piperazin-1-yl)dodecyl) nicotinamide] | −43.03% | 100.00% | 100.00% | 100.00% | 100.00% | 100.00% | 6.42% | 4.05% | 3.26% | 2.23% | – | – | – | – | – | – | – | – | – | – | Relative cell viability (%) ([3]; 1 μM): 24.97%; Relative cell viability (%) ([3]; 10 μM): 33.03%; Relative cell viability (%) ([3]; 30 μM): 32.41%; Relative cell viability (%) ([3]; 50 μM): 18.65%
Cc1ccc(OC2CCN(CCCCCCCCCCCCNC(=O)c3cccnc3N)CC2)cc1 [Compound 51, 2-Amino-N-(12-(4-(p-tolyloxy)piperidin-1-yl)dodecyl) nicotinamide] | 0.77% | 16.10% | 100.00% | 100.00% | 100.00% | 100.00% | – | – | – | – | – | – | – | – | – | – | – | – | – | – | Relative cell viability (%) ([3]; 1 μM): 24.93%; Relative cell viability (%) ([3]; 10 μM): 17.30%; Relative cell viability (%) ([3]; 50 μM): 7.69%
Cl.Nc1ncccc1C(=O)NCCCCCCCCCCCCN1CC[C@H](N)C1 [Compound 50, (S)-2-Amino-N-(12-(3-aminopyrrolidin-1-yl)dodecyl) nicotinamide hydrochloride] | −7.48% | 100.00% | 100.00% | 100.00% | 100.00% | 100.00% | 9.20% | 8.18% | 6.18% | 4.31% | – | – | – | – | – | – | – | – | – | – | Relative cell viability (%) ([3]; 1 μM): 20.78%; Relative cell viability (%) ([3]; 10 μM): 26.55%; Relative cell viability (%) ([3]; 30 μM): 23.42%; Relative cell viability (%) ([3]; 50 μM): 7.05%
Nc1ncccc1C(=O)NCCCCCCCCCCCCN1CCC(c2ccc([N+](=O)[O-])cc2)CC1 [Compound 44, 2-Amino-N-(12-(4-(4-nitrophenyl)piperidin-1-yl)dodecyl)nicotinamide] | – | – | – | – | – | – | – | – | – | – | -6.21% | 100% | 100% | 100% | 100% | 100% | 6.14% | 4.91% | 2.54% | 1.41% | viability at 1 µM ([3]; Homo sapiens, FaDu, 1 μM): 1.22%; viability at 10 µM ([3]; Homo sapiens, FaDu, 10 μM): 5.89%; viability at 30 µM ([3]; Homo sapiens, FaDu, 30 μM): 2.94%
Nc1ncccc1C(=O)CCCCCCCCCCCCCN1CC2CCC(C1)O2 [Compound 131, 1-(2-aminopyridin-3-yl)-14-(8-oxa-3-azabicyclo[3.2.1]octan-3-yl)tetradecan-1-one] | – | – | – | – | – | – | – | – | – | – | -6.12% | 100% | 100% | 100% | 100% | 100% | 44.8% | 42.1% | 42.7% | 42.5% | –
CC1CCN(CCCCCCCCCCCCNC(=O)c2cccnc2N)C1 (stereo not drawn) [Compound 24, 2-Amino-N-(12-(3-methylpyrrolidin-1-yl)dodecyl) nicotinamide] | −7.33% | 100.00% | 100.00% | 100.00% | 100.00% | 100.00% | 8.38% | 1.65% | 0.62% | – | – | – | – | – | – | – | – | – | – | – | –
Nc1ncccc1C(=O)NCCCCCCCCF [Compound 61, 2-Amino-N-(8-fluoro-octyl)-nicotinamide] | – | – | – | – | – | – | – | – | – | – | -10.2% | -6.37% | -5.75% | 34.9% | 85.4% | 93.2% | 48.8% | 36.4% | 42% | 21% | –
CN1CCN(CCCCCCCCCCCCNC(=O)c2cccnc2F)CC1 [Compound 121, 2-fluoro-N-(12-(4-methylpiperazin-1-yl)dodecyl) nicotinamide] | 0.00% | 0.00% | 0.00% | 30.00% | 100.00% | 100.00% | 34.89% | 28.99% | 29.04% | 31.11% | – | – | – | – | – | – | – | – | – | – | –
CN(C)CCN1CCN(CCCCCCCCCCCCNC(=O)c2cccnc2N)CC1 [Compound 33, 2-Amino-N-(12-(4-(2-(dimethylamino)ethyl)piperazin-1-yl)dodecyl)nicotinamide] | – | – | – | – | – | – | – | – | – | – | -36% | 100% | 100% | 100% | 100% | 100% | 10.1% | 4.32% | 3.35% | 2.66% | –
CN(C)C1CCN(CCCCCCCCCCCCNC(=O)c2cccnc2N)C1 (stereo not drawn) [Compound 19, 2-Amino-N-(12-(3-(dimethylamino)pyrrolidin-1-yl)dodecyl)nicotinamide] | – | – | – | – | – | – | – | – | – | – | -14.4% | 100% | 100% | 100% | 100% | 100% | 8.51% | 7.51% | 5.98% | 5.08% | –
Cl.O=C(NCCCCCCCCCCCCN1CCNCC1)c1ccc(-c2ccccc2)o1 [Compound 90, 5-Phenyl-N-(12-(piperazin-1-yl)dodecyl) furan-2-carboxamide hydrochloride] | −8.27% | −2.03% | 66.18% | 100.00% | 100.00% | 100.00% | 7.19% | 5.94% | 2.48% | 1.94% | – | – | – | – | – | – | – | – | – | – | –
CC1(C)CCN(CCCCCCCCCCCCNC(=O)c2cccnc2N)C1 [Compound 22, 2-Amino-N-(12-(3,3-dimethylpyrrolidin-1-yl)dodecyl) nicotinamide] | −0.80% | 100.00% | 100.00% | 100.00% | 100.00% | 100.00% | 6.46% | 2.85% | 2.45% | 1.67% | – | – | – | – | – | – | – | – | – | – | –
